In patent US8399521B2, “Methods of treating skin with aromatic skin-active ingredients” (Mary Kay Inc., priority 2008, dated 2013):

Assays:
MMP3 = target: T1, MMP3 (Homo sapiens, UniProt P08254); assay: Matrix metalloproteinase enzyme activity assay, MMP3; assay type: biochemical; conditions: 0.001% test compound; negative = inhibition vs diluent control; Table 2
T1 construct: purchased BioMol International AK-400
Description: (§1) Matrix metalloproteinase enzyme activity (MMP3; MMP9) assay: An in vitro matrix metalloprotease (MMP) inhibition assay. MMPs are extracellular proteases that play a role in many normal and disease states by virtue of their broad substrate specificity. MMP3 substrates include collagens, fibronectins, and laminin; while MMP9 substrates include collagen VII, fibronectins and laminin. Using Colorimetric Drug Discovery kits from BioMol International for MMP3 (AK-400) and MMP-9 (AK-410), this assay is designed to measure protease activity of MMPs using a thiopeptide as a chromogenic substrate (Ac-PLG-[2-mercapto-4-methyl-pentanoyl]-LG-OC2H5)5,6. The MMP cleavage site peptide bond is replaced by a thioester bond in the thiopeptide. Hydrolysis of this bond by an MMP produces a sulfhydryl group, which reacts with DTNB [5,5′-dithiobis(2-nitrobenzoic acid), Ellman's reagent] to form 2-nitro-5-thiobenzoic acid, which can be detected by its absorbance at 412 nm (ε=13,600 M-1 cm-1 at pH 6.0 and above 7). Data is reflected as % inhibition of the purified enzyme activity.

TNF-α = TNF-α secretion by PMA-treated human keratinocytes (ELISA); assay type: cell-based; conditions: 0.01% test compound; PMA 10 ng/ml, 6 hours; % change in secreted TNF-α, negative = reduction; Table 2
Description: Tumor necrosis factor alpha (TNF-α) assay: The prototype ligand of the TNF superfamily, TNF-α, is a pleiotropic cytokine that plays a central role in inflammation. Increase in its expression is associated with an up regulation in pro-inflammatory activity. This bioassay analyzes the effect of compounds on the production of TNF-α by human epidermal keratinocytes. The endpoint of this assay is a spectrophotometric measurement that reflects the presence of TNF-α and cellular viability. The assay employs the quantitative sandwich enzyme immunoassay technique whereby a monoclonal antibody specific for TNF-α has been pre-coated onto a microplate. Standards and samples are pipetted into the wells and any TNF-α present is bound by the immobilized antibody. After washing away any unbound substances, an enzyme-linked polyclonal antibody specific for TNF-α is added to the wells. Following a wash to remove any unbound antibody-enzyme reagent, a substrate solution is added to the wells and color develops in proportion to the amount of TNF-α bound in the initial step using a microplate reader for detection at 450 nm. The color development is stopped and the intensity of the color is measured.
Subconfluent normal human adult keratinocytes (Cascade Biologics) cultivated in EpiLife standard growth medium (Cascade Biologics) at 37° C. in 5% CO2, were treated with PMA (10 ng/ml, Sigma Chemical, #P1585-1MG) and test compounds for 6 hours. […] Following incubation, cell culture medium was collected and the amount of TNF-a secretion quantified using a sanwhich enzyme linked immuno-sorbant assay (ELISA) from R&D Systems ([…]). Following all manufacturer instructions, medium from treated cells was incubated with antibodies directed against human TNF-α which were bound to microtiter plates. The amount of TNF-α protein was quantified by comparison of optical density units to standard concentrations of purified TNF-α protein. Values are calculated as % change in the amount of TNF-α protein secreted between control and treated samples. […]

COX-1 = target: T2, COX-1 (Ovis aries, UniProt P05979); assay: Colorimetric COX (ovine) inhibitor screening assay, COX-1; assay type: biochemical; conditions: negative = inhibition vs non-treated control; for Cox-1 Inhibition (0.020%): 0.020% test compound, Table 2
T2 construct: purchased Cayman Chemical 760111
T2 sequence (P05979 25-600): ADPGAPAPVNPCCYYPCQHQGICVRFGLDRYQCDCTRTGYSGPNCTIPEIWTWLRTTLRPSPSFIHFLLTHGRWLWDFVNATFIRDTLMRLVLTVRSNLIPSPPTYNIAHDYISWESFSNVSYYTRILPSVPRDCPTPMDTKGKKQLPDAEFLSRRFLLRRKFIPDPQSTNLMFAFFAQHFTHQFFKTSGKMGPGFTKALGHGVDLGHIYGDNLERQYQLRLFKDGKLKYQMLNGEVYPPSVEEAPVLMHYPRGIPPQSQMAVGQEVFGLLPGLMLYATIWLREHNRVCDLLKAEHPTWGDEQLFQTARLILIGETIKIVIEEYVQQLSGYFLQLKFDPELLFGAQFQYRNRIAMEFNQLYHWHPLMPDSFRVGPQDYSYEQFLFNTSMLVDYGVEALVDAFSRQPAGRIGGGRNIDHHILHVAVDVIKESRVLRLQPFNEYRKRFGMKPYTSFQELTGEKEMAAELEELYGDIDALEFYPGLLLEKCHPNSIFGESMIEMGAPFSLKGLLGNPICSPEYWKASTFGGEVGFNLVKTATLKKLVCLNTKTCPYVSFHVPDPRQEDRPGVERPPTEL
Description: (§2) Cyclooxygenase (COX) assay: An in vitro cyclooxygenase-1 and -2 (COX-1, -2) inhibition assay. […] The cyclooxygenase activity converts arachidonic acid to a hydroperoxy endoperoxide (Prostaglandin G2; PGG2) and the peroxidase component reduces the endoperoxide (Prostaglandin H2; PGH2) to the corresponding alcohol, the precursor of prostaglandins, thromboxanes, and prostacyclins. This COX Inhibitor Screening Assay measures the peroxidase component of cyclooxygenases. The peroxidase activity is assayed colorimetrically by monitoring the appearance of oxidized N,N,N′,N′-tetramethyl-p-phenylenediamine (TMPD). This inhibitor screening assay includes both COX-1 and COX-2 enzymes in order to screen isozyme-specific inhibitors.
(§3) Following manufacturer instructions for the Colormetric COX (ovine) Inhibitor screening assay (#760111, Cayman Chemical), purified cyclooxygnase enzyme (COX-1 or COX-2), heme and test compounds were mixed in assay buffer and incubated with shaking for 15 min at room temperature. Following incubation, arachidonic acid and colorimetric substrate were added to initiate the reaction and incubated for an additional 15 min at room temperature with shaking. Color progression was evaluated by fluoresecence plate reading at 590 nm. The percent inhibition of COX-1 or COX-2 activity was calculated compared to non-treated controls to determine the ability of test compounds to inhibit the activity of purified enzyme.

15-lipoxygenase = target: T3, 15-lipoxygenase (Glycine max, UniProt P08170); assay: Lipoxygenase (LO) inhibition assay; assay type: biochemical; conditions: 0.1% test compound; negative = inhibition vs non-treated control; Table 2
T3 construct: purchased Cayman Chemical 760700
T3 sequence (P08170 1-839): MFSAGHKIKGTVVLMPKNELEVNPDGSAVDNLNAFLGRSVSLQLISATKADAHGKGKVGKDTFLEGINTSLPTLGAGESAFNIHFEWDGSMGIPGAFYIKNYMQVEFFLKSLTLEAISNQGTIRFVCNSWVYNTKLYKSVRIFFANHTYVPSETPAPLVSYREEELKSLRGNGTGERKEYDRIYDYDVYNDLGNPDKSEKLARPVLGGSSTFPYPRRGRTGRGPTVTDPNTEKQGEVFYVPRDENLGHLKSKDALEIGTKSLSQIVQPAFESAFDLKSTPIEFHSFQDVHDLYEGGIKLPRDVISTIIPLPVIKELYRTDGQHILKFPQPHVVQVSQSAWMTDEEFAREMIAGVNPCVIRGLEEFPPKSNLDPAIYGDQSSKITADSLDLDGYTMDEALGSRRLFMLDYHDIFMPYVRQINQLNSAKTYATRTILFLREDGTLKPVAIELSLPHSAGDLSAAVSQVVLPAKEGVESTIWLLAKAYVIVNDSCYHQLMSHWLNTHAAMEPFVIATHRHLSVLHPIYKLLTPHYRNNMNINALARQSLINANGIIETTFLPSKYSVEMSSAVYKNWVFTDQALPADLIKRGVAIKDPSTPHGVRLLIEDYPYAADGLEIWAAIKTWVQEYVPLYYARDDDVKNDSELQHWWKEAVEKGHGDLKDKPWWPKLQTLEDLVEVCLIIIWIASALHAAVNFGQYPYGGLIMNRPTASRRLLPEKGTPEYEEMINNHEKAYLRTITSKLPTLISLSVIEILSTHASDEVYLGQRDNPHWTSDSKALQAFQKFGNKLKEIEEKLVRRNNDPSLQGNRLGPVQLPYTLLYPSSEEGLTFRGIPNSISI
Method: Lipoxygenase (LO) assay: An in vitro lipoxygenase (LO) inhibition assay. LOs are non-heme iron-containing dioxygenases that catalyze the addition of molecular oxygen to fatty acids. Linoleate and arachidonate are the main substrates for LOs in plants and animals. […] This assay provides an accurate and convenient method for screening lipoxygenase inhibitors by measuring the hydroperoxides generated from the incubation of a lipoxygenase (5-, 12-, or 15-LO) with arachidonic acid.
Following incubation, arachidonic acid was added to initiate the reaction and mixtures incubated for an additional 10 min at room temperature. Colorimetric substrate was added to terminate catalysis and color progression was evaluated by fluorescence plate reading at 490 nm. The percent inhibition of lipoxyganse activity was calculated compared to non-treated controls to determine the ability of test compounds to inhibit the activity of purified enzyme.

COX-2 = target: T4, COX-2 (Ovis aries, UniProt P79208); assay: Colorimetric COX (ovine) inhibitor screening assay, COX-2; assay type: biochemical; conditions: 0.001% test compound; for inhibition at 0.001 %: 0.25 h
T4 construct: purchased Cayman Chemical 760111
T4 sequence (P79208 17-603): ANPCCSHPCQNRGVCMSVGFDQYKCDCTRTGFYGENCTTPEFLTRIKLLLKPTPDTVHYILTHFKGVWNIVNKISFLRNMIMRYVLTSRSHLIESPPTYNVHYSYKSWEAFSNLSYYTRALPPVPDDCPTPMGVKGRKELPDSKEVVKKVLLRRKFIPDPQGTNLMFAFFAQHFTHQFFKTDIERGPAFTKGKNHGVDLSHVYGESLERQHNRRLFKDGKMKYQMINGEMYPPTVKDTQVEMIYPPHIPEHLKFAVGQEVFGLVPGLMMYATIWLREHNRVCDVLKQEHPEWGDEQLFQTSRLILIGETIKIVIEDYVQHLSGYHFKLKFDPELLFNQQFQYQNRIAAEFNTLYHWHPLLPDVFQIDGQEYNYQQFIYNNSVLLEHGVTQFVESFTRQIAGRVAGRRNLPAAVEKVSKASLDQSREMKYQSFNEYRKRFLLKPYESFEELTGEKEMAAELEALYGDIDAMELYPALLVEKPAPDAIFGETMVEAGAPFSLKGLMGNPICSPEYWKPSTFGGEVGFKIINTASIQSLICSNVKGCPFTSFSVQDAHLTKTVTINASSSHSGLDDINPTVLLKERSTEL
Description: as §2, §3

MMP9 = target: T5, MMP9 (Homo sapiens, UniProt P14780); assay: Matrix metalloproteinase enzyme activity assay, MMP9; assay type: biochemical; conditions: 0.001% test compound; negative = inhibition vs diluent control; Table 2
T5 construct: purchased BioMol International AK-410
Description: as §1

T1 sequence (P08254 100-272 limits assumed): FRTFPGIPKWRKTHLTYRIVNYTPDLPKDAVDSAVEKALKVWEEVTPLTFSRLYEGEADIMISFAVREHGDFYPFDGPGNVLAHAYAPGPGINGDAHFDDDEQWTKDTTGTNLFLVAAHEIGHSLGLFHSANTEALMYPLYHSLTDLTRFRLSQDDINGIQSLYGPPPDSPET
T5 sequence (P14780 107-444 limits assumed): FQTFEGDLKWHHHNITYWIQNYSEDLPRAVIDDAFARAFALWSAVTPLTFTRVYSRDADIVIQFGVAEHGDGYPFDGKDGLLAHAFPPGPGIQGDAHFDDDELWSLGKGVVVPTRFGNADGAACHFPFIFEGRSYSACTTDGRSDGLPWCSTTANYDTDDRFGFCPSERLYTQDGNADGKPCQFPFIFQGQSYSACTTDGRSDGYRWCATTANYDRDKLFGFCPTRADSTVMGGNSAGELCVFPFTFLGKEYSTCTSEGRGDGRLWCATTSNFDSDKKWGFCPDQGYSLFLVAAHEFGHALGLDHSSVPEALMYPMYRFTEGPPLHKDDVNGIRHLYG

Row | MMP3 Inhibition (0.001%) (MMP3) | LO Inhibition (0.1%) (15-lipoxygenase) | Compound | TNF-α Inhibition (0.01%) (TNF-α) | further results
1 | −25.09% |  | CC(C)=CCCC1=CCCC(C)(C=O)C1 (stereo not shown) [Precyclemone B, 1-methyl-3-(4-methylpent-3-enyl)cyclohex-3-enecarbaldehyde] |  | 
2 |  | −37.86% | CC(=O)OC1CCC(C(C)(C)C)CC1 (stereo not shown) [Vertenex ® H.C., 4-tert-butylcyclohexyl acetate] |  | Cox-1 Inhibition (0.020%) (COX-1): −18.50%
3 | −20.34% | −45.58% | 2,6-nonadien-1-al (trans, trans; trans, cis) |  | Cox-1 Inhibition (0.020%) (COX-1): −11.42%; Cox-2 Inhibition (0.001%) (COX-2; negative = inhibition vs non-treated control, Table 2): −17.58%; MMP9 Inhibition (0.001%) (MMP9): −32.53%
4 | −23.75% |  | CCCC/C=C/C=C/C=O [2,4-nonadien-1-al] |  | inhibition at 0.001 % (COX-2; Table 2): 21.1%; MMP9 Inhibition (0.001%) (MMP9): −19.87%

Continued, compound first:

Row | Compound | MMP3 Inhibition (0.001%) (MMP3) | LO Inhibition (0.1%) (15-lipoxygenase) | TNF-α Inhibition (0.01%) (TNF-α) | further results
5 | 3-(4-ethylphenyl)-2,2-dimethylpropanal and 3-(2-ethylphenyl)-2,2-dimethylpropanal [Floralozone] |  |  | −33.20% | 
6 | CC(=O)OCCC(C)CCC=C(C)C (stereo not shown) [Citronellyl Acetate, 3,7-dimethyl-6-octen-1-yl acetate] |  |  |  | Cox-1 Inhibition (0.001%) (COX-1; 0.001% test compound, Table 4): −27.99%; inhibition at 0.001 % (COX-2; Table 4): 20.9%
7 | 3a,4,5,6,7,7a-hexahydro-4,7-methano-1h-inden-5(or 6)-yl acetate [Cyclacet] |  | −26.37% |  | 
8 | CCCCCCCCC(C)C=O (stereo not shown) [Aldehyde C-11 MOA, 2-methyldecanal] |  |  | −38.68% | 
9 | CC(C)=CCCC(C)C=O (stereo not shown) [Melanol, 2,6-dimethyl-5-heptenal] |  | −20.45% |  | 
10 | CCCCCC/C=C/C(=O)OC [Neofolione, methyl non-2-enoate] |  | −27.46% | −53.90% | 
